Measurements as given in the NIST ThermoML archive (doi:10.1021/acs.jced.9b00794).

Experiment: mn = molality of the nth substance listed, in mol/kg
Details: 99.6 kPa, Liquid, Vibrating tube method

NC(N)=O [urea] + NC=O
mass density [kg/m3]
Details | 288.15 K | 298.15 K | 308.15 K | 318.15 K | 328.15 K
m1 = 0.1057 | 1138.95 | 1130.54 | 1122.1 | 1113.61 | 1105.1
m1 = 0.1893 | 1139.77 | 1131.36 | 1122.91 | 1114.44 | 1105.94
m1 = 0.3308 | 1141.12 | 1132.72 | 1124.29 | 1115.82 | 1107.33
m1 = 0.4766 | 1142.51 | 1134.11 | 1125.69 | 1117.23 | 1108.75
m1 = 0.675 | 1144.34 | 1135.96 | 1127.55 | 1119.11 | 1110.64
m1 = 0.7518 | 1145.05 | 1136.67 | 1128.26 | 1119.83 | 1111.37
m1 = 0.8498 | 1145.93 | 1137.56 | 1129.16 | 1120.74 | 1112.28
m1 = 1.07 | 1147.9 | 1139.54 | 1131.15 | 1122.75 | 1114.3
m1 = 1.292 | 1149.82 | 1141.49 | 1133.11 | 1124.72 | 1116.29
m1 = 1.33 | 1150.15 | 1141.82 | 1133.44 | 1125.05 | 1116.63
m1 = 1.424 | 1150.95 | 1142.62 | 1134.26 | 1125.87 | 1117.45
m1 = 1.555 | 1152.06 | 1143.73 | 1135.38 | 1127 | 1118.59
m1 = 1.681 | 1153.09 | 1144.79 | 1136.43 | 1128.06 | 1119.66
m1 = 1.718 | 1153.4 | 1145.09 | 1136.75 | 1128.38 | 1119.98
m1 = 1.824 | 1154.26 | 1145.96 | 1137.63 | 1129.27 | 1120.87
m1 = 1.999 | 1155.67 | 1147.39 | 1139.06 | 1130.7 | 1122.32

NC(N)=O [urea] + O
mass density [kg/m3]
Details | 288.15 K | 298.15 K | 308.15 K | 318.15 K | 328.15 K
m1 = 0.09134 | 1000.61 | 998.5 | 995.42 | 991.58 | 987.02
m1 = 0.2167 | 1002.67 | 1000.46 | 997.32 | 993.41 | 988.81
m1 = 0.3509 | 1004.84 | 1002.52 | 999.32 | 995.36 | 990.71
m1 = 0.5181 | 1007.5 | 1005.07 | 1001.77 | 997.75 | 993.05
m1 = 0.6698 | 1009.88 | 1007.34 | 1003.96 | 999.88 | 995.14
m1 = 0.8161 | 1012.14 | 1009.5 | 1006.05 | 1001.91 | 997.13
m1 = 0.9745 | 1014.54 | 1011.8 | 1008.27 | 1004.08 | 999.25
m1 = 1.195 | 1017.83 | 1014.96 | 1011.32 | 1007.05 | 1002.16
m1 = 1.33 | 1019.8 | 1016.85 | 1013.15 | 1008.83 | 1003.92
m1 = 1.489 | 1022.09 | 1019.05 | 1015.27 | 1010.91 | 1005.95
m1 = 1.6 | 1023.67 | 1020.57 | 1016.75 | 1012.35 | 1007.36
m1 = 1.707 | 1025.18 | 1022.02 | 1018.15 | 1013.72 | 1008.7
m1 = 1.898 | 1027.81 | 1024.56 | 1020.6 | 1016.12 | 1011.06
m1 = 2.034 | 1029.63 | 1026.33 | 1022.32 | 1017.8 | 1012.71
